# Data taken from the Deep4Chem optical property database.
# Where “and” joins values, the source holds several entries; their conditions need not be identical. Identical values can stand only once.
# Assay: solvent given as SMILES
structure (smiles),measurement,setting,value
CCCCCCn1c2ccccc2c2cc(/C=C/c3cc(=O)oc4cc(C)ccc34)ccc21,absorption maximum,in CS(C)=O,405 nm
same,absorption maximum,in ClC(Cl)Cl,393 nm
COc1ccc2n1[B-](F)(F)[N+]1=C(SC#N)C=CC1=C2c1ccccc1,absorption maximum,in CC#N,474 nm
same,absorption maximum,in CCCCCC,517 nm
same,absorption maximum,in CCOC(C)=O,506 nm
same,absorption maximum,in CO,480 nm
same,absorption maximum,in ClCCl,508 nm
COC(=O)C1=C(C(=O)OC)[Se](=O)[C@]23C1=C[C@H](c1ccccc12)c1ccccc13 (stereo partly drawn),absorption maximum,in ClCCl,341 nm
O=C([O-])c1c2ccccc2c(C(=O)[O-])c2ccccc12,absorption maximum,in CN(C)C=O,400 nm
CC[N+]1(CC)CN2C(=N1)C(C(=O)O)=Cc1cc(C)ccc12,absorption maximum,in O,379 nm
[NH3+]C(Cc1ccccc1)C(=O)[O-] (stereo not drawn),absorption maximum,in O,258 nm
COc1ccc(/C=C/c2cc(/C=C/c3ccc(OC)cc3)nc(/C=C/c3ccc(N(c4ccccc4)c4ccccc4)cc3)n2)cc1,absorption maximum,in ClCCl,376 nm
C(=C(c1ccccc1)c1ccccc1)c1ccc(C=C(c2ccccc2)c2ccccc2)cc1,absorption maximum,in C1CCOC1,352 nm
CCCCn1c2ccc(-c3ccc(C(F)(F)F)cc3)cc2c2ccc3c4cc(-c5ccc(C(F)(F)F)cc5)ccc4n(CCCC)c3c21,absorption maximum,in ClC(Cl)Cl,301 nm
NC(=O)CC[C@H](/[NH+]=C\C=C1\C=C(C(=O)O)N[C@H](C(=O)O)C1)C(=O)O,absorption maximum,in CCO,474 nm
same,absorption maximum,in CO,471 nm
same,absorption maximum,in O,475 nm
same,absorption maximum,in OCC(F)(F)F,473 nm
same,absorption maximum,in OCCO,478 nm
CC(C)(C)c1cc(C(C)(C)C)c2oc3c(c2c1)C=CN1C(=O)C2=C4c5oc6c(C(C)(C)C)cc(C(C)(C)C)cc6c5C=CN4C(=O)C2=C31,absorption maximum,in CN(C)C=O,645 nm
same,absorption maximum,in ClC(Cl)Cl,643 nm
COc1cc(/C=C/c2nc(N3CCOCC3)c3c([n+]2[O-])CCCC3)cc(OC)c1OC,absorption maximum,in ClCCl,390 nm
Cc1ccccc1-c1c2cccc3c(-c4ccc(C(C)(C)C)cc4)cc4c(-c5ccccc5C)c5cccc6c(-c7ccc(C(C)(C)C)cc7)cc1c(c65)c4c32,absorption maximum,in ClCCl,447 nm
CCOC(=O)CCCCCn1c2ccccc2c(=O)c2cc(N)ccc21,absorption maximum,in O,405 nm
O=P1(c2ccccc2)C(c2cccs2)=Cc2ccccc21 (stereo not drawn),absorption maximum,in C1CCOC1,368 nm
COc1ccc(/C=C/c2nc3c4ccccc4c4ccccc4c3o2)cc1,absorption maximum,in CC#N,368 nm
Cc1ccc(C2=C3C=c4c(oc5ccccc45)=[N+]3[B-](F)(F)n3c2cc2c4ccccc4oc23)cc1,absorption maximum,in C1CCCCC1,584.5 nm
same,absorption maximum,in C1CCOC1,581.5 nm
same,absorption maximum,in CC#N,578 nm
same,absorption maximum,in CCOC(C)=O,579.5 nm
same,absorption maximum,in CN(C)C=O,581.5 nm
same,absorption maximum,in CO,578 nm
same,absorption maximum,in Cc1ccccc1,588 nm
same,absorption maximum,in ClCCl,584 nm and 583 nm
CCn1c2ccccc2c2cc(C#Cc3cc(C#Cc4ccc5c(c4)c4ccccc4n5CC)nc(OC)n3)ccc21,absorption maximum,in C1CCOC1,388 nm
same,absorption maximum,in CCOC(C)=O,384 nm
same,absorption maximum,in CN(C)C=O,392 nm
same,absorption maximum,in Cc1ccccc1,389 nm
same,absorption maximum,in ClCCl,390 nm
CC(C)(C)c1ccc(C(C)(C)C)c(N2C(=O)c3cccc4c(-c5ccc(-c6ccc(N(c7ccccc7)c7ccccc7)cc6)s5)ccc(c34)C2=O)c1,absorption maximum,in CO,447 nm
same,absorption maximum,in CS(C)=O,445 nm
same,absorption maximum,in Cc1ccccc1,440 nm
O=c1c2cc(F)c(N3CCCCC3)cc2oc2cc(N3CCCCC3)c(F)cc12,absorption maximum,in CCO,369 nm
[O-][n+]1c(/C=C/c2ccc(/C=C/c3ccccc3)cc2)nc(N2CCOCC2)c2c1CCCC2,absorption maximum,in ClCCl,406 nm
CC[N+]1(CC)CN2C(=N1)C(C(=O)O)=Cc1cc(F)ccc12,absorption maximum,in O,375 nm
CCN(CC)c1ccc2c(c1)C(C)(C)C(=O)C=C2,absorption maximum,in O,429 nm
c1ccc(-n2c(-c3ccc([Si](c4ccc(-c5nc6ccccc6n5-c5ccccc5)cc4)(c4ccc(-c5nc6ccccc6n5-c5ccccc5)cc4)c4ccc(-c5nc6ccccc6n5-c5ccccc5)cc4)cc3)nc3ccccc32)cc1,absorption maximum,in ClCCl,306 nm
CN1C(=CC2=C([S-])C(=Cc3sc4ccccc4[n+]3C)C2=O)C(C)(C)c2ccccc21,absorption maximum,in ClC(Cl)Cl,661 nm
CCC1(CC)c2cc(Br)ccc2-c2c1c1c(c3c2C(CC)(CC)c2cc(-c4cccs4)ccc2-3)C(CC)(CC)c2cc(Br)ccc2-1,absorption maximum,in C1CCOC1,336 nm
CCOC(=O)C(Cc1ccc(O[Si]2(Oc3ccc(CC(NC(C)=O)C(=O)OCC)cc3)n3c4c5ccccc5c3/N=C3N=C(/N=c5/c6ccccc6/c(n52)=N/C2=NC(=N\4)/c4ccccc42)c2ccccc2\3)cc1)NC(C)=O (stereo not drawn),absorption maximum,in CN(C)C=O,681 nm
c1ccc2c(c1)Cc1ccccc1N2c1c2ccccc2cc2ccccc12,absorption maximum,in Cc1ccccc1,416 nm
CCN(CC)c1ccc(-c2nc3c(c4c2-c2ccccc2CC4)-c2ccccc2CC3)cc1,absorption maximum,in C1CCOC1,357 nm
same,absorption maximum,in CC#N,360 nm
same,absorption maximum,in CCCCCC,355 nm
same,absorption maximum,in CCOC(C)=O,346 nm
same,absorption maximum,in CO,352 nm
same,absorption maximum,in CS(C)=O,361 nm
same,absorption maximum,in Cc1ccccc1,359 nm
same,absorption maximum,in ClCCl,357 nm
Cn1c(-c2ccc(-c3nc(-c4ccccc4)c(-c4ccccc4)n3C)s2)nc(-c2ccccc2)c1-c1ccccc1,absorption maximum,in CC#N,391 nm
CCc1ccc2ccc(-c3ccccc3)nn12,absorption maximum,in C1CCCCC1,405 nm
CCN(CC)c1ccc2cc(/C=C/c3ccccc3)c(=O)oc2c1,absorption maximum,in CC#N,421 nm
c1ccc(-c2nnc(-c3ccc(-n4c5ccccc5c5ccccc54)cc3)o2)cc1,absorption maximum,in Cc1ccccc1,340 nm
Cc1ccc(C2=Cc3ccc4ccccc4[n+]3[B-](F)(F)O2)cc1,absorption maximum,in ClC(Cl)Cl,432 nm
O=C1OC(=O)C2=C1[Se][C@]13C2=C[C@H](c2ccccc21)c1ccccc13,absorption maximum,in ClCCl,421 nm
COc1ccc2cc(-c3ccc(S(C)(=O)=O)cc3)oc(=O)c2c1,absorption maximum,in CCO,331 nm
same,absorption maximum,in CCOC(C)=O,331 nm
same,absorption maximum,in CN(C)C=O,333 nm
same,absorption maximum,in CO,330 nm
same,absorption maximum,in ClC(Cl)Cl,334 nm
FC(F)(F)C(F)(F)C(F)(F)C(F)(F)C(F)(F)C(F)(F)C(F)(F)C(F)(F)CCOc1nnc(Cl)nn1,absorption maximum,in ClCCl,519 nm
same,absorption maximum,in OCC(F)(F)F,509 nm
CC(C)(C)c1ccc(-c2cc(-c3ccc(-c4cc(-c5ccc(C(C)(C)C)cc5)c(C(=O)NCc5cccs5)s4)s3)sc2C(=O)NCc2cccs2)cc1,absorption maximum,in ClCCl,394 nm
F[B-]1(F)n2c(-c3ccccc3)cc(-c3cccs3)c2N=C2C(c3cccs3)=CC(c3ccccc3)=[N+]21,absorption maximum,in ClCCl,683 nm
COc1ccc(-c2c3nc(cc4ccc([nH]4)c(-c4ccc(OC)c(OCCCC(=O)O)c4)c4nc(cc5ccc2[nH]5)CC4)C=C3)cc1OCCCC(=O)O,absorption maximum,in CS(C)=O,644 nm
CCN(CC)c1ccc2c(-c3ccccc3C(=O)O)c3c([o+]c2c1)/C(=C/c1ccc2c(c1)c1ccccc1n2CC)CCC3,absorption maximum,in ClCCl,646 nm
Clc1nc(Cl)nc(Nc2ccc3ccc4cccc5ccc2c3c45)n1,absorption maximum,in CC#N,341 nm
same,absorption maximum,in CCCCOCCCC,341 nm
same,absorption maximum,in CO,340 nm
CC(C)c1cccc(C(C)C)c1N1C(=O)c2cccc3c(Oc4ccccc4)ccc(c23)C1=O,absorption maximum,in ClCCl,364 nm
CC1=CC(C)=[N+]2C1=C(c1ccc(-c3ccc(OS(=O)(=O)c4ccc([N+](=O)[O-])cc4[N+](=O)[O-])cc3)s1)c1c(C)cc(C)n1[B-]2(F)F,absorption maximum,in CO,512 nm
same,absorption maximum,in Cc1ccccc1,518 nm
same,absorption maximum,in ClCCl,515 nm
Cc1ccc(-c2nc3sc4ccccc4c3s2)cc1,absorption maximum,in CS(C)=O,349 nm
CC(C)(C)c1ccc2c(c1)c1cc(C(C)(C)C)ccc1n2-c1ccc(N(c2ccc(-c3ccc(-c4ccc(N(c5ccc(-n6c7ccc(C(C)(C)C)cc7c7cc(C(C)(C)C)ccc76)cc5)c5ccc(-n6c7ccc(C(C)(C)C)cc7c7cc(C(C)(C)C)ccc76)cc5)cc4)s3)cc2)c2ccc(-n3c4ccc(C(C)(C)C)cc4c4cc(C(C)(C)C)ccc43)cc2)cc1,absorption maximum,in ClCCl,396 nm
Cc1nc2cccc(-c3nc4ccccc4s3)c2c(=O)[nH]1,absorption maximum,in CN(C)C=O,319 nm
O=P1(c2ccccc2)C(c2ccc(N(c3ccccc3)c3ccccc3)cc2)=Cc2cc3ccccc3cc21 (stereo not drawn),absorption maximum,in C1CCOC1,407 nm
same,absorption maximum,in CC#N,404 nm
same,absorption maximum,in CN(C)C=O,407 nm
same,absorption maximum,in Cc1ccccc1,412 nm
same,absorption maximum,in ClC(Cl)Cl,417 nm
same,absorption maximum,in ClCCl,414 nm
O=C1c2cccc3c(NCc4ccccn4)c4ccccc4c(c23)C(=O)N1Cc1ccccn1,absorption maximum,in C1CCOC1,520 nm
same,absorption maximum,in CCCCCC,497 nm
same,absorption maximum,in CCO,533 nm
same,absorption maximum,in Cc1ccccc1,517 nm
same,absorption maximum,in ClCCl,527 nm
N#Cc1c(-n2c3ccccc3c3cc(Br)ccc32)c(C#N)c(-n2c3ccccc3c3cc(Br)ccc32)c(-n2c3ccccc3c3cc(Br)ccc32)c1-n1c2ccccc2c2cc(Br)ccc21,absorption maximum,in Cc1ccccc1,381 nm
CC[n+]1c(C=C2C(=O)C(C=C3Sc4cc(Cl)ccc4N3C)=C2[O-])[se]c2ccccc21,absorption maximum,in CO,658 nm
same,absorption maximum,in ClC(Cl)Cl,677 nm
same,absorption maximum,in ClCCl,678 nm
CCC1=C(C)C2=C(C)c3c(C)c(CC)c(C)n3[B-](F)(F)[N+]2=C1C,absorption maximum,in C1CCCCC1,522.5 nm
same,absorption maximum,in C1CCOC1,518.4 nm
same,absorption maximum,in C1COCCO1,518.6 nm
same,absorption maximum,in CC#N,514.8 nm
same,absorption maximum,in CC(C)=O,516 nm
same,absorption maximum,in CC(C)O,518.8 nm
same,absorption maximum,in CCC(C)C,520.4 nm
same,absorption maximum,in CCCCCC,521.1 nm
same,absorption maximum,in CCCCCCCC,521.2 nm
same,absorption maximum,in CCCCCCCCCCO,521.8 nm
same,absorption maximum,in CCCCCCCCO,521 nm
same,absorption maximum,in CCCCCCO,520.4 nm
same,absorption maximum,in CCCCO,519.4 nm
same,absorption maximum,in CCCO,518.9 nm
same,absorption maximum,in CCO,517.7 nm
same,absorption maximum,in CCOC(C)=O,516.4 nm
same,absorption maximum,in CCOCC,518.8 nm
same,absorption maximum,in CN1CCCC1=O,518.2 nm
same,absorption maximum,in CN(C)C=O,517.1 nm
same,absorption maximum,in CO,516.2 nm
same,absorption maximum,in Cc1ccccc1,522.5 nm
same,absorption maximum,in ClCCl,520 nm
same,absorption maximum,in OCC(F)(F)F,515.7 nm
same,absorption maximum,in OCCO,518 nm
same,absorption maximum,in OCCOc1ccccc1,522.3 nm
same,absorption maximum,in c1ccccc1,522.7 nm
O=C(c1cc(F)c(N2CCCCC2)cc1F)c1cc(F)c(N2CCCCC2)cc1F,absorption maximum,in CCO,354 nm
